Experimental data as given in paper PMC9253268 (Frontiers in Immunology, 2022).
Like-named read-outs stand apart in the source and are kept apart here. Values belong to the molecule of their own block, whether it stands above or below them.

Assays:
[1] = Chemical profiling of BHGZD in sera (UFLC-Q-TOF-MS/MS); conditions: 30 min after the treatment of BHGZD
Description: (§1) A rapid, sensitive, and reliable method by the UFLC-Q-TOF-MS/MS system was used to identify the chemical profiling of BHGZD as described in Supplementary Materials Section 9 ([30]). The reference standards of these compounds ( Supplementary Table S2 ) were purchased from Chengdu Must Bio-technology Co., Ltd. (Chengdu, China), the National Institute for the Control of Pharmaceutical and Biological Products (Beijing, China), and Chengdu DeSiTe Biological Technology Co., Ltd. (Chengdu, China).
(§2) Sciex, Forster City, USA) with electrospray ionization source (ESI). Kinetex C18 column
(§3) (Phenomenex, 3.0×150 mm, 2.6μm, 100Å) was used to perform chromatographic
(§4) separation with a flow rate of 0.3mL/min at 40℃. A linear gradient program with mobile
(§5) phase system including solvent A (deionized water with 0.1% formic acid, v/v) and solvent
(§6) B (methanol) was described in details: solvent B (5~95%) for 40min, isocratic eluted at
(§7) 95% B for 5min，95%~5% B (40-45min), followed a post-run of 2min to equilibrate the
(§8) The instrumental settings of Q-TOF-MS/MS were described in the previous study
(§9) (9).Samples were analyzed in both positive and negative ionization modes with scanning
(§10) mas-to-charge (m/z) range from 50 to 1500. Data was collected in information-dependent
(§11) acquisition (IDA) mode and analyzed by PeakView® 2.2 software (AB Sciex, Foster City,
(§12) Chemical identifications were based on reference standards and mass spectral
(§13) library (Natural Products HR-MS/MS Spectral Library, Version 1.0, AB Sciex, Forster City,

RAW264.7 cells [2] = experiment: Cell viability, CCK-8 assay; assay type: cell-based, mouse; conditions: 0.21–6.74 ng/ml MG or 0.02–0.52 ng/ml CA treatment alone
Description: Cell viability was analyzed with the cell counting kit-8 (CCK-8) assay kit (Beyotime Biotechnology, Shanghai, China) as described in Supplementary Materials Section 16 .
Section 16 Cell proliferation assay
Cell viability was analyzed with Cell Counting Kit-8 (CCK-8) assay kit (Beyotime Biotechnology, China). Raw264.7 cells were seeded into 96-well plate, and after […]
solution was added to each well. The absorbance was measured after 4h of incubation at […]
Section 17 Flow cytometry
To identify and quantify of pyroptosis population of Raw264.7 cells, FITC Apoptosis Detection kit I staining with both the Annexin V-fluorescein isothiocyanate and propidium iodide (PI, BD Biosciences, San Jose, CA, USA) was used in accordance with manufacturer's guidelines. Briefly, Raw264.7 cells was washed twice with cold PBS and then resuspended in 1×binding buffer at a concentration of 1x10^6 cells/mL. Then, 100µL of the solution (1x10^5 cells) was transferred to a 5 mL culture tube. Subsequently, 5µL of FITC Annexin V and 5µL PI were added into cultured tube, and vortexed and incubated for 15 min at room temperature in the dark. Finally, 400µL 1×binding buffer was added into each tube, and analyzed by flow cytometry (ACEA Bioscience, San Diego, CA, USA) and NovoExpress 1.4.1 software (ACEA Bioscience, San Diego, CA, USA) within 1h.

RAW264.7 cells [3] = experiment: LPS/ATP-induced pyroptosis in RAW264.7 cells (flow cytometry, FAM-FLICA, immunofluorescence, Western blotting, ELISA); assay type: cell-based, mouse
MH7A cells = experiment: LPS/ATP-induced pyroptosis in MH7A cells (TUNEL, immunofluorescence, Western blotting, ELISA); assay type: cell-based, human
recombinant AKT1 protein = target: T1, recombinant AKT1 protein (Homo sapiens, UniProt P31749); experiment: Surface plasmon resonance (SPR) binding assay; conditions: Biacore 8K, read-out: mean KD, MG–AKT
T1 construct: His tag; purchased Abcam ab116412
Description: To confirm the binding affinity of recombinant AKT1 protein and MG, SPR assay was performed with Biacore 8K (Biacore, Cytiva), and the K D value was calculated using the Biacore 8K evaluation software 2.0 (GE Healthcare). Detailed information on SPR assay is provided in Supplementary Materials Section 11 . […]
compound was greater than 9.0×106cm/s and 40% which indicated drug-like […]
Section 11 Surface plasmon resonance (SPR) assay
SPR binding assays were analyzed with Biacore 8K (Biacore, Cytiva). Materials and reagents used in SPR assays were purchased from Cytiva. The histidine-tagged AKT1 (Cat No. ab116412, Abcam, Cambridge, UK) was immobilized on the surface of Carboxymethylated (CM5) sensor chip through the standard amino coupling method. The carboxyl groups of the sensor surface were activated by injection of a solution containing 0.2M N-ethyl-N9-(3-dimethylaminopropyl) carbodiimide (EDC) and 0.05M N-hydroxysuccinimide (NHS), AKT1 in 10mM sodium acetate buffer was then injected at a flow rate of 10μL/min to couple to the sensor surface, and the remaining active sites in the […]
Sensor chips were primed twice with degassed physiological running buffer (PBS buffer). A reference flow cell was activated and blocked in the absence of AKT1. […]

[4] = In vivo pharmacokinetic analysis of MG and CA after oral BHGZD (UHPLC-QTRAP-MS/MS); conditions: rat plasma after oral BHGZD 21.4 g/kg each day, n = 3
Description: The pharmacokinetic parameters were calculated by Drug and Statistic software (Shanghai, China). Detailed information on the collection of blood samples and UHPLC-QTRAP-MS/MS conditions is provided in Supplementary Materials Section 13 . […]
Section 13 Pharmacokinetic analysis […]
administration of BHGZD, ultra-fast liquid chromatography coupled with triple quadrupole-linear ion trap composite mass spectrometry (UHPLC-QTRAP-MS/MS) system was […]
Bioanalytical Method Validation issued by Chinese Pharmacopoeia Commission in 2020.
The pharmacokinetic parameters were calculated by Drug and Statistic software […]
1) Collection of blood samples
Male Lewis rats (n=6, 6-8 weeks-old, 200±20g in weight) were purchased from Beijing Vital River Laboratory Animal Technology Co., Ltd. (SCCK 2016-0006, Beijing, China; n=3 per group, including normal control group and normal control+BHGZD treatment group).
Diet was prohibited for 12h before the experiment but water was freely available. Blood samples (~0.25mL) were collected from the retinal venous plexus into heparinized 1.5mL polythene tubes before administration and 0, 0.25, 0.5, 1, 2, 3, 4, 6, 8,12 and 24h after administration of BHGZD. The plasma samples were obtained after centrifuging at 12000rpm for 15min, and stored at -20℃ prior to analysis.
2) UHPLC-QTRAP-MS/MS conditions
Quantification analysis were performed on an ultra-high-performance liquid chromatography (Shimadzu Corp., Japan) tandem ion trap quadrupole QTRAP 6500 plus mass spectrometry (AB Sciex, USA). Chromatographic separation was conducted using a Poroshell 120 EC-C18 column (3.0×50mm, 2.7μm) at 40℃. The mobile phase was consisted of 0.1% formic acid–water (v/v, A) and methanol (B) and elution program were:
Mass spectrometry detector were conducted in negative mode and the detecting parameters were set as follows: curtain gas, 35 psi; collision gas, medium; ionspray voltage, 4500 V; temperature, 550℃; ion source gas 1 and 2, 55psi. Quantitative ion pairs were optimized for MG: m/z 421.2-301.1 (declustering potential: 63V, CE: 30eV) and for […]
Data acquisition and analysis

[5] = rat, in vivo
Description: as §1, §2, §3, §4, §5, §6, §7, §8, §9, §10, §11, §12, §13

[6] = LPS/ATP-induced RAW264.7 cells, all p < 0.05
[7] = LPS/ATP-induced, BHGZD 28.54 μg/ml, MG 1.69 ng/ml, CA 0.13 ng/ml, 24 h
[8] = LPS/ATP-induced MH7A cells, all p < 0.05

T1 sequence (P31749 whole entry): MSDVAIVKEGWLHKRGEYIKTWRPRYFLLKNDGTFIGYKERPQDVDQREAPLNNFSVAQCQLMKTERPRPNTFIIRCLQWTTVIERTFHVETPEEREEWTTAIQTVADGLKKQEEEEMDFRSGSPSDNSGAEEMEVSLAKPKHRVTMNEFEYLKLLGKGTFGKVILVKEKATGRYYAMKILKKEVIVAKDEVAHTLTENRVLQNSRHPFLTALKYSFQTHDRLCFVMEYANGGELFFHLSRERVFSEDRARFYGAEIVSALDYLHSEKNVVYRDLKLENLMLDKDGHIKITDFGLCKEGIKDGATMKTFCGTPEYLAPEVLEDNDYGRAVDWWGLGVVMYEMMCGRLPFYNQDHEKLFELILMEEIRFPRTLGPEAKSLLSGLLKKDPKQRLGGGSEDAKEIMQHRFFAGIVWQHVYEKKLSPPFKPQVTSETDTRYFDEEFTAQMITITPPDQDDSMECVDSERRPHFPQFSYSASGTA

Molecule: anemarrhensaponin I
- quantitative detection in sera after the treatment of BHGZD [1]: detected

Molecule: CC1(C)[C@@H](O[C@H]2O[C@H](C(=O)O)[C@@H](O)[C@H](O)[C@H]2O[C@@H]2O[C@H](C(=O)O)[C@@H](O)[C@H](O)[C@H]2O)CC[C@]2(C)[C@H]3C(=O)C=C4[C@@H]5C[C@@](C)(C(=O)O)CC[C@]5(C)CC[C@@]4(C)[C@]3(C)CC[C@@H]12 [glycyrrhizic acid]
- quantitative detection in sera after the treatment of BHGZD [1]: detected

Molecule: O=c1c2cc(O)c(O)cc2oc2cc(O)c([C@@H]3O[C@H](CO)[C@@H](O)[C@H](O)[C@H]3O)c(O)c12 [MG, mangiferin]
- quantitative detection in sera after the treatment of BHGZD [1]: detected
- cell viability (CCK8) (RAW264.7 cells [2]): no cell toxicity
- GSDMD-NT (RAW264.7 cells [3]; LPS/ATP-induced RAW264.7 cells, Western blotting): decreased
- expression levels of NLRP3, ASC, and caspase-1 (RAW264.7 cells [3]; [6]): reduced
- levels of IL-1β, IL-18, and LDH release in the supernatant (RAW264.7 cells [3]; [6]): reduced
- PI positive cell rate (RAW264.7 cells [3]; LPS/ATP-induced, 1.69 ng/ml MG, 0.13 ng/ml CA, 24 h, inferior to BHGZD, all p < 0.05): prominently reduced
- number of FLICA-positive RAW264.7 cells (RAW264.7 cells [3]; [7]): reduced
- inhibition on cell pyroptosis induced by LPS/ATP, alone versus combination (RAW264.7 cells [3]; RAW264.7 and MH7A cells, all p < 0.05): weaker than that in the two-BAC combination treatment group
- GSDMD-NT (MH7A cells; LPS/ATP-induced MH7A cells, Western blotting): decreased
- expression levels of NLRP3, ASC, and caspase-1 (MH7A cells; [8]): reduced
- levels of IL-1β, IL-18, and LDH release in the supernatant (MH7A cells; [8]): reduced
- number of TUNEL-positive MH7A cells (MH7A cells; [7]): reduced
- Kd (recombinant AKT1 protein): 38.3 µM
- Cmax ([4]; male, Lewis, rat, plasma, po, 21.4 g/kg, non-compartment model, read-out: Cmax): 132 ng/mL
- AUC(0-t) ([4]; male, Lewis, 0-24 h): 578 ± 183 ng·h/mL
- half-life ([4]; male, Lewis, apparent elimination half-life, read-out: t1/2z (converted)): 1.26 ± 0.23 h
- AUC(0-inf) ([4]; male, Lewis): 579 ± 182 ng·h/mL
- MRT last ([4]; male, Lewis, read-out: MRT(0-t)): 4.23 ± 0.3 h
- MRT inf ([4]; male, Lewis, read-out: MRT(0-∞)): 4.25 ± 0.28 h
- Tmax ([4]; male, Lewis, non-compartment model): 4 h
- Cmax ([4]; non-compartment model, listed as Mangiferin (MG)): 132.07 ± 44.67 ng/mL

Molecule: C[C@@H](CC[C@@]1(O)O[C@H]2C[C@H]3[C@@H]4CC[C@@H]5C[C@@H](O[C@@H]6O[C@H](CO)[C@H](O)[C@H](O)[C@H]6O[C@@H]6O[C@H](CO)[C@@H](O)[C@H](O)[C@H]6O)CC[C@]5(C)[C@H]4CC[C@]3(C)[C@H]2[C@@H]1C)CO[C@@H]1O[C@H](CO)[C@@H](O)[C@H](O)[C@H]1O [timosaponin B II]
- quantitative detection in sera after the treatment of BHGZD [1]: detected

Molecule: O=C1C[C@@H](c2ccc(O)cc2)Oc2cc(O)ccc21 [liquiritigenin]
- quantitative detection in sera after the treatment of BHGZD [1]: detected

Molecule: O=C(/C=C/c1ccc(O[C@@H]2O[C@H](CO)[C@@H](O)[C@H](O)[C@H]2O)cc1)c1ccc(O)cc1O [isoliquiritin]
- quantitative detection in sera after the treatment of BHGZD [1]: detected

Molecule: COc1cc2c(=O)c3c(O)c([C@@H]4O[C@H](CO)[C@@H](O)[C@H](O)[C@H]4O)c(O)cc3oc2cc1O [7-O-methyl mangiferin]
- quantitative detection in sera after the treatment of BHGZD [5]: detected

Molecule: COc1ccc(-c2coc3cc(O)ccc3c2=O)cc1 [formononetin]
- quantitative detection in sera after the treatment of BHGZD [1]: detected

Further lines, results first:

- quantitative detection in sera after the treatment of BHGZD [1]: detected
Molecule: O=c1cc(-c2ccc(O)cc2)oc2c([C@@H]3O[C@H](CO)[C@@H](O)[C@H](O)[C@H]3O)c(O)c([C@@H]3OC[C@H](O)[C@H](O)[C@H]3O)c(O)c12 [isoschaftoside]

- quantitative detection in sera after the treatment of BHGZD [1]: detected
Molecule: O=c1cc(-c2ccc(O)cc2)oc2cc(O)c([C@@H]3O[C@H](CO)[C@@H](O)[C@H](O)[C@H]3O)c(O)c12 [isovitexin]

- quantitative detection in sera after the treatment of BHGZD [1]: detected
Molecule: O=c1cc(-c2ccc(O)cc2)oc2c([C@@H]3O[C@H](CO)[C@@H](O)[C@H](O)[C@H]3O)c(O)cc(O)c12 [vitexin]

- quantitative detection in sera after the treatment of BHGZD [1]: detected
Molecule: O=c1c2cc(O[C@@H]3O[C@H](CO)[C@@H](O)[C@H](O)[C@H]3O)c(O)cc2oc2cc(O)c([C@@H]3O[C@H](CO)[C@@H](O)[C@H](O)[C@H]3O)c(O)c12 [neomangiferin]
